Experimental data as given in ChEMBL document CHEMBL2046331, “Lead optimization of a sulfonylurea-based piperazine pyridazinone series of glucan synthase inhibitors” (Bioorg Med Chem Lett, 2012).
Values after ≈ are worked out from the molar mass of the structure shown. Active and inactive are the calls of the source. The calls are words filed in the database; no cut-off is given here.

Tests used:
[1] = AUC (0 to 6 hrs) in rat at 10 mg/kg, po; type: ADME, organism-based; set-up: time < 6 hr, dose 10 mg/kg, route oral; settings: plasma
Candida albicans [2] = assay: Antifungal activity against Candida albicans C375 by broth dilution method; type: functional; settings: read-out: MIC100
Nakaseomyces glabratus = assay: Antifungal activity against Candida glabrata C624 by broth dilution method; type: functional; settings: read-out: MIC100
[3] = Clearance in human hepatocytes assessed per million cells; type: ADME, cell-based, Hepatocyte; settings: read-out: CLH
Candida albicans [4] = assay: Antifungal activity against Candida albicans C693 by broth dilution method; type: functional; settings: read-out: MIC100
Candida albicans [5] = assay: Antifungal activity against Candida albicans C43 by broth dilution method; type: functional; settings: read-out: MIC100
Beta-1,3-glucan synthase = target: T1, Beta-1,3-glucan synthase (Candida albicans, UniProt O13383); assay: Inhibition of glucan synthase in Candida albicans BWP17 membrane; type: cell membranes
T1 sequence (O13383 whole entry): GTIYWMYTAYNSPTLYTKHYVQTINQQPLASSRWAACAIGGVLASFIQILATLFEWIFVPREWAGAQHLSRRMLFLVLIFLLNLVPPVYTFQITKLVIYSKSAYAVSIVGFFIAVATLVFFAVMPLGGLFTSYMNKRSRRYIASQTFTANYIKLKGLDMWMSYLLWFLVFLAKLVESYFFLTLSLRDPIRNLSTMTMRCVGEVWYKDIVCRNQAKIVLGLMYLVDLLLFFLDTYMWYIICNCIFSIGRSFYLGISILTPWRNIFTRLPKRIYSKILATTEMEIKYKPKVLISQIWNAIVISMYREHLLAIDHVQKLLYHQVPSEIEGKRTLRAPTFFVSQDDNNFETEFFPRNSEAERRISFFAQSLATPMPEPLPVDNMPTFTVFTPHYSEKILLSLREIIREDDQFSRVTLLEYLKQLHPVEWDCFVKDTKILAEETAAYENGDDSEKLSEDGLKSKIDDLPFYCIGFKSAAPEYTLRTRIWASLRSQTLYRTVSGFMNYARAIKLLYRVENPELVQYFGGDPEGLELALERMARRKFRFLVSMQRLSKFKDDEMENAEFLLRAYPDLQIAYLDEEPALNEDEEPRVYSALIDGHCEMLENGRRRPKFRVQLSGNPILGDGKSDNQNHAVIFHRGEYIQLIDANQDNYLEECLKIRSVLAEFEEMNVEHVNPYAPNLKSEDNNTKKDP

Aspergillus fumigatus = assay: Antifungal activity against Aspergillus fumigatus ND158 by broth dilution method; type: functional; settings: read-out: MEC
[6] = Clearance in rat hepatocytes assessed per million cells; type: ADME, cell-based, Hepatocyte; settings: read-out: CLH
Candida albicans [7] = assay: Antifungal activity against Candida albicans C43 by broth dilution method in presence of 25% human serum; type: functional; settings: read-out: MIC100
Candida albicans [8] = assay: Antifungal activity against Candida albicans C43 systemically infected in mouse assessed as reduction in fungal burden in kidney at 100 mg/kg, ip administered daily for 4 days relative to vehicle treated control; type: functional, organism-based; set-up: dose 100 mg/kg
Candida albicans [9] = assay: Antifungal activity against Candida albicans C43 systemically infected in mouse assessed as reduction in fungal burden in kidney at 100 mg/kg, ip administered daily for 4 days relative to caspofungin; type: functional, organism-based; set-up: dose 100 mg/kg

AUC(0-t) at 6 h [1] [ng·h/mL]	MIC (Candida albicans [2]) [µg/mL]	MIC (Nakaseomyces glabratus) [µg/mL]	hepatocyte CLint [3] [µL/min/1e6 cells]	MIC (Candida albicans [4]) [µg/mL]	MIC (Candida albicans [5]) [µg/mL]	IC50 (Beta-1,3-glucan synthase) [nM]	hepatocyte CLint [6] [µL/min/1e6 cells]	MIC (Candida albicans [7]) [µg/mL]	SMILES	minimal effective concentration (Aspergillus fumigatus) [µg/mL]	Activity (Candida albicans [8])	Activity (Candida albicans [9])
		0.03 (≈ 0.0602 µM)		0.52 (≈ 1.04 µM)		361			CC(C)NS(=O)(=O)N1CCN(/C(C=N)=C(\OC2CCCC2)C(=O)Nc2cccc(Cl)c2)CC1			
		0.52 (≈ 0.837 µM)		2.08 (≈ 3.35 µM)		1300			CC1(CO/C(C(=O)Nc2cccc(Cl)c2)=C(/C=N)N2CCN(S(=O)(=O)NCc3nc4cc(Cl)ccc4o3)CC2)CC1			
900	2.08 (≈ 3.62 µM)	0.52 (≈ 0.904 µM)	13.4	0.26 (≈ 0.452 µM)	0.52 (≈ 0.904 µM)	108			Cc1cc(CNS(=O)(=O)N2CCN(/C(C=N)=C(\OCC3(C)CC3)C(=O)Nc3cccc(Cl)c3)CC2)ccc1N	2.08		
		0.06 (≈ 0.099 µM)		0.26 (≈ 0.429 µM)		297			COc1ccc(CNS(=O)(=O)N2CCN(/C(C=N)=C(\OCC3(C)CC3)C(=O)Nc3cccc(Cl)c3)CC2)cc1OC			
2580									Cc1ccc(CNS(=O)(=O)N2CCN(/C(C=N)=C(\OC3CCC(F)C3)C(=O)Nc3cc(F)cc(F)c3)CC2)cc1N (mixture of isomers)			
		< 0.02		0.03 (≈ 0.0549 µM)		87.9			N=C/C(=C(/OC1CCCC1)C(=O)Nc1cccc(Cl)c1)N1CCN(S(=O)(=O)NCc2ccccc2)CC1			
50	> 33	2.08 (≈ 3.7 µM)		8.35 (≈ 14.9 µM)	16.7 (≈ 29.7 µM)	409			CC1(CO/C(C(=O)Nc2cccc(Cl)c2)=C(/C=N)N2CCN(S(=O)(=O)NCc3ccnc(N)c3)CC2)CC1	16.7		
860	4.17 (≈ 7.05 µM)	0.52 (≈ 0.88 µM)		0.52 (≈ 0.88 µM)	1.04 (≈ 1.76 µM)	157	12.6	4.17	COc1cc(CNS(=O)(=O)N2CCN(/C(C=N)=C(\OCC3(C)CC3)C(=O)Nc3cccc(Cl)c3)CC2)ccc1N	4.17	inactive	inactive
		0.16 (≈ 0.301 µM)		> 25		117			N=C/C(=C(/OC1CCCC1)C(=O)Nc1cccc(Cl)c1)N1CCN(S(=O)(=O)Nc2ccccc2)CC1			

Further lines, the molecule ahead of its results:

SMILES	AUC(0-t) at 6 h [1] [ng·h/mL]	MIC (Candida albicans [2]) [µg/mL]	MIC (Nakaseomyces glabratus) [µg/mL]	hepatocyte CLint [3] [µL/min/1e6 cells]	MIC (Candida albicans [4]) [µg/mL]	MIC (Candida albicans [5]) [µg/mL]	IC50 (Beta-1,3-glucan synthase) [nM]	hepatocyte CLint [6] [µL/min/1e6 cells]	MIC (Candida albicans [7]) [µg/mL]	minimal effective concentration (Aspergillus fumigatus) [µg/mL]	Activity (Candida albicans [8])	Activity (Candida albicans [9])
Cc1ccc(CNS(=O)(=O)N2CCN(/C(C=N)=C(\OCC3(C)CC3)C(=O)Nc3cccc(Cl)c3)CC2)cc1N	1410	2.08 (≈ 3.62 µM)	0.26 (≈ 0.452 µM)	19.6	0.26 (≈ 0.452 µM)	0.52 (≈ 0.904 µM)	125			1.04		
N=C/C(=C(/OC1CCCC1)C(=O)Nc1cccc(Cl)c1)N1CCN(S(N)(=O)=O)CC1			16.7 (≈ 36.6 µM)		> 33		42100					
Cc1nc2ccc(CNS(=O)(=O)N3CCN(/C(C=N)=C(\OCC4(C)CC4)C(=O)Nc4cccc(Cl)c4)CC3)cc2s1			0.06 (≈ 0.0972 µM)		0.52 (≈ 0.843 µM)		97.2					
COC(=O)c1ccc(CNS(=O)(=O)N2CCN(/C(C=N)=C(\OCC3(C)CC3)C(=O)Nc3cccc(Cl)c3)CC2)cc1			0.13 (≈ 0.215 µM)		0.52 (≈ 0.861 µM)		530					
N=C/C(=C(/OC1CCCC1)C(=O)Nc1cccc(Cl)c1)N1CCN(S(=O)(=O)N2CCOCC2)CC1			0.39 (≈ 0.741 µM)		25 (≈ 47.5 µM)		2870					
CC1(CO/C(C(=O)Nc2cccc(Cl)c2)=C(/C=N)N2CCN(S(=O)(=O)NCc3ccncc3)CC2)CC1			2.08 (≈ 3.8 µM)		0.52 (≈ 0.95 µM)		91.4					
COc1ccc(CNS(=O)(=O)N2CCN(/C(C=N)=C(\OCC3(C)CC3)C(=O)Nc3cccc(Cl)c3)CC2)cc1N	440	4.17 (≈ 7.05 µM)	0.52 (≈ 0.88 µM)		0.26 (≈ 0.44 µM)	0.52 (≈ 0.88 µM)	237	15	2.08	4.17		
CN(C)S(=O)(=O)N1CCN(/C(C=N)=C(\OC2CCCC2)C(=O)Nc2cccc(Cl)c2)CC1			0.1 (≈ 0.207 µM)		6.25 (≈ 12.9 µM)		1900					
CC1(CO/C(C(=O)Nc2cccc(Cl)c2)=C(/C=N)N2CCN(S(=O)(=O)NCc3ccccc3)CC2)CC1			2.08 (≈ 3.81 µM)		> 33		5310					
CC(C)N(C)S(=O)(=O)N1CCN(/C(C=N)=C(\OC2CCCC2)C(=O)Nc2cccc(Cl)c2)CC1			0.39 (≈ 0.762 µM)		10 (≈ 19.5 µM)		1450					
CC1(CO/C(C(=O)Nc2cccc(Cl)c2)=C(/C=N)N2CCN(S(=O)(=O)NCc3nc4ccccc4s3)CC2)CC1			0.26 (≈ 0.431 µM)		0.26 (≈ 0.431 µM)		398					
CCN(CC)S(=O)(=O)N1CCN(/C(C=N)=C(\OC2CCCC2)C(=O)Nc2cccc(Cl)c2)CC1			0.2 (≈ 0.391 µM)		6.25 (≈ 12.2 µM)		625					
CC1(CO/C(C(=O)Nc2cccc(Cl)c2)=C(/C=N)N2CCN(S(=O)(=O)NCc3cccnc3)CC2)CC1			2.08 (≈ 3.8 µM)		1.04 (≈ 1.9 µM)		201					
CC1(CO/C(C(=O)Nc2cccc(Cl)c2)=C(/C=N)N2CCN(S(=O)(=O)NCc3ccc(N)c(F)c3)CC2)CC1		0.52 (≈ 0.898 µM)	0.13 (≈ 0.224 µM)		0.06 (≈ 0.104 µM)	0.13 (≈ 0.224 µM)	111	12.7	1.04	1.04		
CC1(CO/C(C(=O)Nc2cccc(Cl)c2)=C(/C=N)N2CCN(S(=O)(=O)NCc3ccc(F)c(N)c3)CC2)CC1		4.17 (≈ 7.2 µM)	0.52 (≈ 0.898 µM)		0.52 (≈ 0.898 µM)	2.08 (≈ 3.59 µM)	297			2.08		
CC(NS(=O)(=O)N1CCN(/C(C=N)=C(\OCC2(C)CC2)C(=O)Nc2cccc(Cl)c2)CC1)c1cccc(N)c1 (stereo not drawn)	1300	8.35 (≈ 14.5 µM)	1.04 (≈ 1.81 µM)		1.04 (≈ 1.81 µM)	4.17 (≈ 7.25 µM)	522			16.7		
